Laboratory results taken from patent US8329704B2, “Substituted pyrazinone derivatives for use in MCH-1 mediated diseases” (Janssen Pharmaceutica, N.V., priority 2005, dated 2012).

Target: T1, human MCH-1 receptor (Homo sapiens, UniProt Q99705)
T1 construct: expressed in transfected cells
Assay: Ca2+ mobilization experiment for the MCH-1 receptor (FLIPR), inhibition of MCH-induced Ca2+ mobilization
Assay type: cell-based
Conditions: CHO cells stably expressing human MCH-1 receptor, inhibition of MCH-induced Ca2+ response, read-out: MCH-1 pIC50 (converted)
Method: The interaction of the compounds of Formula (I) with MCH-1 receptors was assessed in in vitro transient calcium (Ca^2+) mobilization assays in the fluorimetric imaging plate reader (FLIPR) format (Sullivan et al. 1999, Methods Mol Biol 114:125-133). In general, the natural agonist (MCH) is incubated with cells expressing the MCH-1 receptor, which elicits a concentration-dependent transient mobilization of Ca^2+ from internal stores. The interaction of the test compounds with the receptor is assessed in competition experiments. Various concentrations of the test compound are added to the incubation mixture containing the receptor-expressing cells and a submaximal concentration of MCH. The test compound in proportion to its antagonist potency and its concentration inhibits MCH-induced Ca^2+ mobilization.
Chinese Hamster ovary cells (CHO) stably expressing the human MCH-1 receptor are grown in a 1:1 mixture of Dulbecco's Modified Eagles Medium (DMEM) and HAM's F12 medium including Glutamax™ (Invitrogen), supplemented with 10% heat-inactivated fetal bovine serum and 400 μg/ml geneticin.
Twenty-four hours before the experiment, MCH-1 receptor-expressing CHO cells are seeded in 20 μl (5,000 cells per well) into 384-well black wall, clear bottom microtiter plates (Costar). On the day of the experiment, 20 μl per well calcium assay kit containing 10 mM probenicide (Molecular Devices) is added. Cells are loaded for 90 min at 37° C. and 5% CO2 in a cell culture incubator. After loading, 20 μl of serial dilutions of the test compound are added and cells are further incubated for 20 min at room temperature in the dark. After 20 min, 20 μl of a submaximal MCH concentration is added and changes in intracellular calcium are recorded directly in a FLIPR III apparatus (Molecular devices).
Data from assays in the presence of compound were calculated as a percentage of total Ca^2+-responses measured in the absence of test compound. Inhibition curves, plotting percent of total Ca^2+-responses versus the log value of the concentration of the test compound, were automatically generated, and sigmoidal inhibition curves were fitted using non-linear regression. The pIC50 values of test compounds were derived from individual curves.

T1 sequence (Q99705 whole entry): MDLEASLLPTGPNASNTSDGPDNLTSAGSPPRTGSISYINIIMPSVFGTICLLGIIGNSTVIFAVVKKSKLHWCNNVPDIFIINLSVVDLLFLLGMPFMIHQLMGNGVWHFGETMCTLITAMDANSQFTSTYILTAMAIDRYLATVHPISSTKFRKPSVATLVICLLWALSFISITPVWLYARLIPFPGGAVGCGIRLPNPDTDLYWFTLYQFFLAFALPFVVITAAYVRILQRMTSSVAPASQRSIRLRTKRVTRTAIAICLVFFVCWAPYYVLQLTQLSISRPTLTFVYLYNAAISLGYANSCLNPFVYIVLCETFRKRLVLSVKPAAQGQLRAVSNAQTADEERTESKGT

Row | SMILES | IC50
1 | O=c1c(NCCOc2ccccc2)nccn1-c1ccc(NCCN2CCCC2)cc1 [1-20] | 200 nM
2 | COc1cc(-n2ccnc(NCCOc3ccccc3)c2=O)ccc1N1CCC(NC(C)=O)CC1 [1-14] | 316 nM
3 | O=c1c(SCCc2ccccc2)nccn1-c1ccc(OCCN2CCCC2)cc1 [2-10] | 31.6 nM
4 | COc1cc(-n2ccnc(N(C)CCc3ccccc3)c2=O)ccc1OCCN1CCCC1 [2-05] | 501 nM
5 | COc1cc(-n2ccnc(NCCOc3ccccc3)c2=O)ccc1OCCN1CCC(F)CC1 [1-69] | 5.01 nM
6 | O=c1c(NCCOc2ccccc2Cl)nccn1-c1ccc(OCCN2CCCC2)cc1 [2-27] | 251 nM
7 | COc1cc(-n2ccnc(NCCOc3ccccc3)c2=O)ccc1OCC(C)N1CCCC1 (stereo not drawn) [1-82] | 63.1 nM
8 | COc1cc(-n2ccnc(NCCCOc3ccc(Cl)cc3)c2=O)ccc1OCCN1CCCC1 [2-32] | 63.1 nM
9 | COc1cc(-n2ccnc(NCCCOc3ccccc3Cl)c2=O)ccc1OCCN1CCCC1 [2-29] | 63.1 nM
10 | COCCN(C)CCOc1ccc(-n2ccnc(NCCOc3ccccc3)c2=O)cc1 [1-29] | 1580 nM
11 | O=C1CCC(=O)N1CCOc1ccc(-n2ccnc(NCCOc3ccccc3)c2=O)cc1 [1-37] | 100 nM
12 | COc1cc(-n2ccnc(NCCOc3ccccc3)c2=O)ccc1OC1CNC1 [1-57] | 63.1 nM
13 | CNCCOc1ccc(-n2ccnc(NCCOc3ccccc3)c2=O)cc1 [1-23] | 1260 nM
14 | O=c1c(NCCc2ccccc2)nccn1-c1ccc(OCCN2CCCC2)cc1 [2-02] | 126 nM
15 | COc1cc(-n2ccnc(NCCc3ccc(C(F)(F)F)cc3F)c2=O)ccc1OCCN1CCCC1 [2-43] | 794 nM
16 | CNC1CCN(c2ccc(-n3ccnc(NCCOc4ccccc4)c3=O)cc2OC)C1 (stereo not drawn) [1-09] | 20 nM
17 | COc1cc(-n2ccnc(NCCc3ccc(Br)cc3)c2=O)ccc1OCCN1CCCC1 [2-21] | 39.8 nM
18 | CN(C)CCN(C)CCOc1ccc(-n2ccnc(NCCOc3ccccc3)c2=O)cc1 [1-27] | > 10000 nM
19 | O=c1c(NCCOc2ccccc2)nccn1-c1ccc(OCCN2CCN(c3ccccc3)CC2)cc1 [1-45] | 794 nM
20 | O=c1c(NCCOc2ccc(F)cc2)nccn1-c1ccc(OCCN2CCCC2)cc1 [2-17] | 2000 nM

Now from value to compound:

Row | IC50 | SMILES
21 | 79.4 nM | COc1cc(-n2ccnc(NCCc3ccccc3)c2=O)ccc1OC1CCN(C)C1 (stereo not drawn) [3-32]
22 | 158 nM | CN(C(=O)OC(C)(C)C)C1CCN(c2ccc(-n3ccnc(NCCc4ccccc4)c3=O)cc2)C1 (stereo not drawn) [3-05]
23 | 158 nM | COc1cc(-n2ccnc(NCCc3ccccc3)c2=O)ccc1OCCN1CCNC(=O)C1 [3-65]
24 | 158 nM | COc1cc(-n2ccnc(NCCc3ccccc3)c2=O)ccc1OCCN1CC(C)OC(C)C1 (stereo not drawn) [3-63]
25 | 39.8 nM | COc1cc(-n2ccnc(NCCc3ccccc3)c2=O)ccc1OCCN1CCC(F)(F)CC1 [3-56]
26 | 63.1 nM | COc1cc(-n2ccnc(SCCc3ccccc3)c2=O)ccc1N1CCOCC1 [6-10]
27 | 79.4 nM | COc1cc(-n2ccnc(NCCc3ccccc3)c2=O)ccc1N1CCC(N(C)C(C)=O)C1 (stereo not drawn) [3-10]
28 | 50.1 nM | CN1CCN(c2ccc(-n3ccnc(NCCc4ccccc4)c3=O)cc2Cl)CC1 [3-78]
29 | 6310 nM | COc1cc(-n2ccnc(N3CCC(c4ccccc4OC)C3)c2=O)ccc1OCCN1CCCC1 (stereo not drawn) [4-06]
30 | 100 nM | COc1cc(-n2ccnc(SCCc3ccccc3)c2=O)ccc1OC1CCNC1 (stereo not drawn) [6-14]
31 | 39.8 nM | COc1cc(-n2ccnc(NCCc3ccccc3)c2=O)ccc1OCCN1CCC(C#N)CC1 [3-51]
32 | 79.4 nM | O=c1c(NCCc2ccccc2)nccn1-c1ccc2c(c1)OCC(CN1CCOCC1)=C2 [3-92]
33 | 50.1 nM | COc1cc(-n2ccnc(NCCc3ccccc3)c2=O)ccc1N1CCC(NC2CC2)C1 (stereo not drawn) [3-16]
34 | 25.1 nM | COc1cc(-n2ccnc(NCCc3ccccc3)c2=O)ccc1OCCN1CCC(C(=O)N2CCCC2)CC1 [3-55]
35 | 25.1 nM | COc1cc(-n2ccnc(NCCc3ccccc3)c2=O)ccc1OC[C@@H]1CCCN1C [3-35]
36 | 39.8 nM | COc1cc(-n2ccnc(NCCc3ccccc3)c2=O)ccc1N1CCN(C)CC1 [3-11]
37 | 25.1 nM | COc1cc(-n2ccnc(NCCc3ccccc3)c2=O)ccc1OC[C@H]1CCCN1 [3-34]
38 | 126 nM | COc1cc(-n2ccnc(NCCc3ccccc3)c2=O)ccc1N1CCC(N2CCC(O)C2)C1 (stereo not drawn) [3-20]
39 | 2000 nM | COc1cc(-n2ccnc(N3CCCC(c4ccc(F)cc4)C3)c2=O)ccc1OCCN1CCCC1 (stereo not drawn) [4-03]
